Source: US7745401B2, “Antifungal peptides and methods of use thereof” (The Board of Regents of the University of Oklahoma, priority 2005, dated 2010)
“Also recorded” adds a separate entry of the source. Where no end group is shown, it is not given here.

How the values were obtained:
Candida albicans = format: cell-based; settings: for activity against C. albicans: in vitro killing efficacy; for activity against fluconazole resistant isolates: isolates A-5 and A-20; for activity against fluconazole sensitive isolates: isolates A-155, A-22 and A-111, 400 μg/ml; for killing of blood isolate of Candida: blood isolate of C. albicans, 400 μg/ml (150 μM); for peptide concentration required for activity: fluconazole resistant isolate A-46; for activity at the lower concentration: fluconazole resistant isolates A-5 and A-20, 200 μg/ml or 75 μM; for fungicidal or fungistatic effect: isolates A-5, A-20, A-46 and A-155, viable colony counts versus starting inoculum
Experimental: (§1) Isolates used in this study included Candida albicans (ATCC 28367), three fluconazole sensitive mucosal isolates of C. albicans, designated A-22, A-111 and A-155, three fluconazole resistant mucosal isolates of C. albicans designated A-46, A-5, and A-20, and a blood isolate of C. albicans designated WDO. Isolates were stored frozen at −70° C. and streaked onto Sabouraud Dextrose Agar (Sigma, St. Louis, Mo.) plates and maintained on plates at 4° C., with subculturing onto new plates approximately every 10 days for the duration of the studies. Fluconazole resistance was evaluated. Three clinical isolates of C. glabrata, two clinical isolates of C. dubliniensis, and single isolate each of C. krusei, C. guilliermondii, C. parapsilosis, C. pseudotropicalis and C. tropicalis and two isolates of Saccharomyces cerevisiae were also used in this study and were maintained on Sabouraud Dextrose agar plates at 4° C. A single yeast colony was cultured overnight at 33° C. in 1% phytone peptone broth (Becton Dickinson, Sparks Md.) with 0.1% D-glucose (Sigma).
Stock solutions of all peptides were made up at concentrations of 1 mg/ml in sterile endotoxin-free water for irrigation (Baxter, Deerfield, Ill.). Subsequent dilutions were all made in tryptone saline pH 5.5 (Shafer et al., Infect Immun, 1984). An aliquot (100 μl) of an overnight culture of a single colony grown at 33° C. in 1% phytone peptone broth with 0.1% glucose was subcultured in 5 ml of 1% phytone peptone broth with 0.1% glucose and incubated in a shaking water bath (80 oscillations per min, Precision, Winchester, Va.) for 90 min at 33° C. to yield a logarithmic culture. […] The optical density was read and the culture adjusted to 500 blastospores/100 μl in tryptone saline pH 5.5 (Shafer et al., Infect Immun, 1984). To 100 μl of the organism suspension in a 96 well sterile polystyrene microtiter plate (Becton Dickinson, Franklin Lakes, N.J.) was added 100 μl of the peptide (final concentrations 400 μg/ml and 200 μg/ml) or 100 μl of tryptone saline. The latter served as a control. The microtiter plate was incubated at 37° C. for 4 hr and 100 μl of the contents from each well was plated on Sabouraud Dextrose agar plates and incubated at 37° C. overnight. The colony forming units (cfu) were counted and the fungicidal activity was expressed as percent killed and calculated according to the following equation: [(control cfu−test cfu)/control cfu]×100=% killed. Control cfu is indicated by the number of colonies present after […] of incubation in tryptone saline alone in the absence of peptide. Test cfu is determined by counting the number of colonies present after incubation in tryptone saline containing the peptide. Each experimental point was performed in triplicate.
C. albicans (ATCC 28367) was used to standardize the in vitro killing assay. We explored the optimal growth conditions (temperature and time, 25° C. for 5 h and 33° C. for 90 min), numbers of blastospores per well (200, 400, 500, 600, 800, and 1000 cfu), range of peptide concentrations (750, 500, 400, 200 and 100 μg/ml) and the contact time between peptide and Candida (1, 2 and 4 hr) for killing to occur. […] The 90 minute incubation was more convenient technically and was therefore employed routinely. The optimum numbers of cfu per well was determined to be 500 and an incubation time of 4 hr at 37° C. between Candida and peptide was required to obtain optimal killing.

C. guilliermondii = assay: In vitro candidacidal assay, C. guilliermondii; format: cell-based; settings: 100 μg/ml (37.5 μM)
Experimental: (§2) Isolates used in this study included Candida albicans (ATCC 28367), three fluconazole sensitive mucosal isolates of C. albicans, designated A-22, A-111 and A-155, three fluconazole resistant mucosal isolates of C. albicans designated A-46, A-5, and A-20, and a blood isolate of C. albicans designated WDO. Isolates were stored frozen at −70° C. and streaked onto Sabouraud Dextrose Agar (Sigma, St. Louis, Mo.) plates and maintained on plates at 4° C., with subculturing onto new plates approximately every 10 days for the duration of the studies. Fluconazole resistance was evaluated. […]
(§3) Stock solutions of all peptides were made up at concentrations of 1 mg/ml in sterile endotoxin-free water for irrigation (Baxter, Deerfield, Ill.). […] The optical density was read and the culture adjusted to 500 blastospores/100 μl in tryptone saline pH 5.5 (Shafer et al., Infect Immun, 1984). […] The colony forming units (cfu) were counted and the fungicidal activity was expressed as percent killed and calculated according to the following equation: [(control cfu−test cfu)/control cfu]×100=% killed. […] Test cfu is determined by counting the number of colonies present after incubation in tryptone saline containing the peptide. […]

C. parapsilosis = assay: In vitro candidacidal assay, C. parapsilosis; format: cell-based; settings: 100 μg/ml (37.5 μM)
Experimental: as §2, §3

C. pseudotropicalis = assay: In vitro candidacidal assay, C. pseudotropicalis; format: cell-based; settings: 400 μg/ml (150 μM)
Experimental: as §2, §3

[1] = system: C. albicans (fluconazole sensitive isolate); assay: FUN-1 vital dye yeast viability, confocal microscopy, C. albicans; format: cell-based, Candida albicans; settings: 400 μg/ml, 37° C. for 2 hr
Experimental: (§4) Yeast viability was also assessed using the FUN-1 Live/Dead Yeast Viability Kit (Molecular Probes, Eugene, Oreg.). The methodology employed was essentially according to the protocol provided by the vendor for use with fluorescent microscopy. Briefly, yeast cultures were prepared exactly as stated above. C. glabrata, C. pseudotropicalis, C. albicans (fluconazole sensitive isolate) and S. cerevisiae (5×10^5 cfu in 100 μl of tryptone saline) were incubated (37° C. for 2 hr) in the absence or presence of peptide (CAP37(20-44)nat and CAP37(20-44)ser26/42) at a final concentration of 400 μg/ml. At the end of the incubation period, the samples were transferred to microcentrifuge tubes and centrifuged (10,000×g for 3 min at room temperature). The supernatant was removed and the pellet resuspended in 25 μl of GH solution (2% D-glucose containing 10 mM Na-HEPES, pH 7.2) as described in the technical data sheet provided by the vendor. A working solution of the FUN-1 reagent (100 μl of 10 μM) was prepared from 10 mM stock solution and 25 μl (final concentration 5 μM) added to the yeast and incubated at room temperature for 30 min. A sample (10 μl) was placed on a microscope slide and staining observed under a Leica TCS NT confocal microscope using Ar-488 and Kr-568 Lasers and 63x Plan APO 1.2 NA water immersion objective. Images were scanned and analyzed using the Leica TCS software.

C. glabrata [2] = assay: FUN-1 vital dye yeast viability, confocal microscopy, C. glabrata; format: cell-based; settings: 400 μg/ml, 37° C. for 2 hr
Experimental: as §4

S. cerevisiae = assay: FUN-1 vital dye yeast viability, confocal microscopy, S. cerevisiae; format: cell-based, Saccharomyces cerevisiae; settings: 400 μg/ml, 37° C. for 2 hr
Experimental: as §4

[3] = system: Salmonella typhimurium, Escherichia coli, and Pseudomonas aeruginosa; settings: Gram negative organisms; cited from earlier work
[4] = system: hyphal forms of Candida albicans; assay: In vitro candidacidal assay on hyphal forms of C. albicans; format: cell-based; settings: clinical isolates; 400 and 200 μg/ml
Experimental: To induce hyphal formation a single colony of C. albicans isolates A-5, A-20, A-22, A-46, A-11 and A-155 from a Sabouraud Dextrose agar plate was transferred to 1% phytone peptone broth with 0.1 glucose and grown overnight at 33° C. An aliquot (500 μl) of the overnight culture was subcultured in 5 ml of RPMI-1640 (Celigro Mediatech Inc, Herndon, Va.)) with 10% fetal calf serum (Invitrogen, Grand Island, N.Y.) for 90 min at 37° C. Hyphal formation was determined under phase microscopy.
as §3, with “Ill.). Subsequent dilutions were all made in tryptone saline pH 5.5 (Shafer et al., Infect Immun, 1984).” for “Ill.).”

C. tropicalis = assay: In vitro candidacidal assay, C. tropicalis; format: cell-based; settings: 400 μg/ml (150 μM)
Experimental: as §1
as §3, with “Ill.). Subsequent dilutions were all made in tryptone saline pH 5.5 (Shafer et al., Infect Immun, 1984).” for “Ill.).”

C. dubliniensis = assay: In vitro candidacidal assay, C. dubliniensis; format: cell-based; settings: two isolates; 400 μg/ml (150 μM)
Experimental: as §1
as §3, with “Ill.). Subsequent dilutions were all made in tryptone saline pH 5.5 (Shafer et al., Infect Immun, 1984).” for “Ill.).”

C. glabrata [5] = assay: In vitro candidacidal assay, C. glabrata; format: cell-based; settings: one isolate of three; 400 μg/ml (150 μM)
Experimental: as §1
as §3, with “Ill.). Subsequent dilutions were all made in tryptone saline pH 5.5 (Shafer et al., Infect Immun, 1984).” for “Ill.).”

Candida = settings: peptides isolated from human platelets; cited from earlier work

NQGRHFSGGALIHARFVMTAASSFQ (NQGRHFSGGALIHARFVMTAASSFQ; listed as Homo sapiens) [CAP37(20-44)ser26/42, cysteines at positions 26 and 42 replaced by serine]
activity against C. albicans (Candida albicans): significantly abrogated activity | activity against fluconazole resistant isolates (Candida albicans): moderately active | activity against fluconazole sensitive isolates (Candida albicans): lack of activity | activity against C. guilliermondii (C. guilliermondii): some activity | activity against C. parapsilosis (C. parapsilosis): some activity | activity against C. pseudotropicalis (C. pseudotropicalis): some activity | blastoconidia alive [1]: 30% | cell viability (C. glabrata [2]): virtually all cells were viable | cell viability (S. cerevisiae): virtually all cells were viable | bactericidal activity [3]: inactive compound

NQGRHFCGGALIHARFVMTAASSFQ [CAP37(20-44)ser42, NQGRHFCGGALIHARFVMTAASSFQ]
killing (Candida albicans): > 75% | killing of blood isolate of Candida (Candida albicans): killed | peptide concentration required for activity (Candida albicans): 400 µg/mL | activity at the lower concentration (Candida albicans): significant activity | activity against C. albicans (Candida albicans): significant activity | fungicidal or fungistatic effect (Candida albicans): fungicidal rather than fungistatic | activity against fluconazole resistant isolates (Candida albicans): highly active | activity against fluconazole sensitive isolates (Candida albicans): strongly active | activity on hyphal forms of C. albicans [4]: greater activity | activity against C. tropicalis (C. tropicalis): killed | activity against C. dubliniensis (C. dubliniensis): more effective against C. dubliniensis than CAP37(20-44)nat; also recorded: effective against both isolates of C. dubliniensis and one isolate of C. glabrata, although to a lesser extent | activity against C. glabrata (C. glabrata [5]): effective against both isolates of C. dubliniensis and one isolate of C. glabrata, although to a lesser extent

NQGRHFSGGALIHARFVMTAASCFQ [CAP37(20-44)ser26, NQGRHFSGGALIHARFVMTAASCFQ]
killing (Candida albicans): > 75% | killing of blood isolate of Candida (Candida albicans): killed | peptide concentration required for activity (Candida albicans): 400 µg/mL | activity at the lower concentration (Candida albicans): significant activity | activity against C. albicans (Candida albicans): significant activity | fungicidal or fungistatic effect (Candida albicans): fungicidal rather than fungistatic | activity against fluconazole resistant isolates (Candida albicans): highly active | activity against fluconazole sensitive isolates (Candida albicans): strongly active | activity against C. tropicalis (C. tropicalis): killed | activity against C. dubliniensis (C. dubliniensis): effective against both isolates of C. dubliniensis and one isolate of C. glabrata, although to a lesser extent | activity against C. glabrata (C. glabrata [5]): effective against both isolates of C. dubliniensis and one isolate of C. glabrata, although to a lesser extent

B1: RANTES: Regulated upon Activation Normal T cell Expressed and Secreted protein, isolated from human platelets (protein, UniProt P13501 24-91, looked up)
C-C motif chemokine 5: SPYSSDTTPCCFAYIARPLPRAHIKEYFYTSGKCSNPAVVFVTRKNRQVCANPEKKWVREYINSLEMS
candidacidal activity (Candida): exhibited candidacidal activity

B2: PF-4: platelet factor-4, isolated from human platelets (protein, UniProt P02776 32-101, looked up)
Platelet factor 4: EAEEDGDLQCLCVKTTSQVRPRHITSLEVIKAGPHCPTAQLIATLKNGRKICLDLQAPLYKKIIKKLLES
candidacidal activity (Candida): exhibited candidacidal activity

B3: CAP37: cationic antimicrobial protein of Mr 37 kDa of the human neutrophil (protein)
chain: IVGGRKARPRQFPFLASIQNQGRHFCGGALIHARFVMTAASCFQSQNPGVSTVVLGAYDLRRRERQSRQTFSISSMSENGYDPQQNLNDLMLLQLDREANLTSSVTILPLPLQNATVEAGTRCQVAGWGSQRSGGRLSRFPRFVNVTVTPEDQCRPNNVCTGVLTRRGGICNGDGGTPLVCEGLAHGVASFSLGPCGRGPDFFTRVALFRDWIDGVLNNPGP
bactericidal activity [3]: strong bactericidal activity
